Data as given in patent US20070292384A1, “Water soluble micelle-forming and biodegradable cyclotriphosphazene-taxol conjugate anticancer agent and preparation method thereof” (priority 2006, published 2007).
Like-named read-outs stand apart in the source and are kept apart here.

Columns and labels:
[1] = system: MCF-7 breast cancer cell line; assay: In vitro cytotoxicity, MCF-7; assay type: cell-based; conditions: average ± SD, n = 3-4
Experimental: (§1) In order to evaluate the anticancer activity of the cyclotriphosphazene-taxol conjugates of the present invention, in vitro cytotoxicity of the representative compound of Example 1 was assayed both in saline and in pure water according to a standard testing procedure (Y. J. Jun, et al., J. Inorg. Biochem. (2005) 99:1593-1601), and the test results are shown in Table 1 below.

[2] = system: SK-OV3 ovarian cancer cell line; assay: In vitro cytotoxicity, SK-OV3; assay type: cell-based; conditions: average ± SD, n = 3-4
Experimental: as §1

A-431 = assay: In vitro cytotoxicity, A-431; assay type: cell-based; conditions: average ± SD, n = 3-4
Experimental: as §1

[3] = Blood metabolism study in rats (HPLC of blood samples); assay type: in vivo, male Sprague-Dawley rats; conditions: rat
Experimental: To a group consisting of 4 male Sprague-Dawley rats (270-300 g) was administered the compound of Example 2 dissolved in a PBS solution at a concentration of 6.67 mg/ml by intravenous infusion with a dosage of 5 mg/kg for 3 minutes. After the drug administration, blood (100 μl) samples were taken from each rat for 48 hours at 0, 0.08, 0.5, 1, 2, 3, 4, 6, 8, 12, 24, 36 and 48 hours post injection, and the samples were analyzed with HPLC, and the results are presented in Table 2 below.

[4] = system: MDA-MB-231 breast cancer cell line; assay: In vitro cytotoxicity, MDA-MB-231; assay type: cell-based; conditions: average ± SD, n = 3-4
Experimental: as §1

[5] = DLS measurement of micelle formation and micelle size; assay type: physicochemical; conditions: 0.1 to 0.5% in distilled water, Malvern Zetasizer (Nano-ZS)
Experimental: It was determined by a DLS (dynamic light scattering) method whether the cyclotriphosphazene-taxol conjugates prepared according to the present invention are aggregated in aqueous solution through interaction of the hydrophobic oligopeptide groups, so as to form micelles, according to the following procedure: A size distribution of an aqueous solution, in which 0.1 to 0.5% of the cyclotriphosphazene-taxol conjugate prepared in Example 1 was dissolved in distilled water, was measured by a DLS method using Malvern Zetasizer (Nano-ZS).

[6] = intravenous infusion 5 mg/kg for 3 minutes, average

CC(=O)O[C@H]1C(=O)[C@@]2(C)[C@H]([C@H](OC(=O)c3ccccc3)[C@]3(O)C[C@H](OC(=O)[C@H](O)[C@@H](NC(=O)c4ccccc4)c4ccccc4)C(C)=C1C3(C)C)[C@]1(OC(C)=O)CO[C@@H]1C[C@@H]2O [Taxol (free), Taxol]
IC50 ([1]; Homo sapiens, MCF7, free taxol): 39 ± 4.9 nM
IC50 ([2]; Homo sapiens, SK-OV-3, free taxol): 65.8 ± 0.5 nM
IC50 (A-431; Homo sapiens, A-431, free taxol): 25.1 ± 8.9 nM
AUC(0-t) ([3]; male, Sprague-Dawley, blood, intravenous infusion 5 mg/kg for 3 minutes, average, sampling to 48 hours): 1970 ng·h/mL
AUC(0-inf) ([3]; male, Sprague-Dawley, blood, intravenous infusion 5 mg/kg for 3 minutes, average, read-out: AUCINF (measurement)): 2290 ng·h/mL
C0 ([3]; male, Sprague-Dawley, blood, intravenous infusion 5 mg/kg for 3 minutes, average, read-out: C0): 2700 ng/mL
AUClast/AUCINF [3, 6]: 85.9%
Cl_obs [3, 6]: 556.2 mL/h
Lambda z [3, 6]: 0.275 h⁻¹
Vz_obs [3, 6]: 2778.1 mL
t½_Lambda z [3, 6]: 3.54 h
IC50 ([4]; Homo sapiens, MDA-MB-231, free taxol): 47.1 ± 12.2 nM

[tris(methoxy-polyethyleneglycol550)][tris(glycyllysinemethylester)-mono-2′-succinyltaxol]cyclotriphosphazene [Example 2]
AUCINF (measurement) [3, 6]: 2.55
AUClast/AUCINF [3, 6]: 77.1%
C0 [3, 6]: 1530 ng/mL
Cl_obs [3, 6]: 513.3 mL/h
Lambda z [3, 6]: 0.133 h⁻¹
Vz_obs [3, 6]: 4468.9 mL
t½_Lambda z [3, 6]: 6.29 h
AUClast ([3]; intravenous infusion 5 mg/kg for 3 minutes, average, sampling to 48 hours): 1970 ng·h/mL
in vivo half life relative to free taxol ([3]; intravenous, compared with free taxol not formulated): twice longer

[tris(methoxy-polyethyleneglycol350)][tris(glycyllysinemethylester)-mono-2′-succinyltaxol]cyclotriphosphazene [Example 1]
IC50 ([1]; in pure water): 447 ± 138 nM
IC50 ([1]; in saline solution): 129 ± 37.5 nM
IC50 ([2]; in pure water): 503 ± 114 nM
IC50 ([2]; in saline solution): 138 ± 14.3 nM
IC50 (A-431; in pure water): 380 ± 89.2 nM
IC50 (A-431; in saline solution): 53.8 ± 13.9 nM
IC50 ([4]; in pure water): 327 ± 54.5 nM
IC50 ([4]; in saline solution): 108 ± 10.9 nM
micelle radius (DLS) [5]: 105 nm
